Measured values: PubChem BioAssay (NCI)
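Tested at 5 concentrations; 48 h exposure; 96-well plates; endpoints linearly interpolated, else capped at highest concentration. Here, GI50 denotes the concentration required for 50% inhibition of growth. TGI denotes the concentration required for complete inhibition of growth.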

Tests used:
Assay in all cases: inhibition of tumour cell growth, NCI panel, 48 h; in the data active = GI50 below about 0.43 µM; inactive = the rest
[1] = test system: M14 melanoma
[2] = test system: BT-549 breast
[3] = test system: T-47D breast
[4] = test system: HL-60(TB) leukemia
[5] = test system: NCI-H23 lung
[6] = test system: UO-31 renal
[7] = test system: SF-295 CNS
[8] = test system: UACC-62 melanoma
[9] = test system: MDA-MB-231 breast
[10] = test system: ACHN renal
[11] = test system: 786-0 renal
[12] = test system: HS 578T breast
[13] = test system: MALME-3M melanoma
[14] = test system: DU-145 prostate
[15] = test system: SK-MEL-5 melanoma
[16] = test system: NCI-H460 lung
[17] = test system: HCT-15 colon
[18] = test system: OVCAR-8 ovarian
[19] = test system: MCF7 breast
[20] = test system: SW-620 colon
[21] = test system: SN12C renal
[22] = test system: NCI-H226 lung
[23] = test system: EKVX NSCLC
[24] = test system: HCC-2998 colon
[25] = test system: OVCAR-4 ovarian
[26] = test system: A549 NSCLC
[27] = test system: TK-10 renal
[28] = test system: OVCAR-5 ovarian

N=C(N)N=Nc1ccc(NN=C(N)N)c2c1ncc1c2nc2sccn21
51.3 µM: TGI [10]
72.1 µM: TGI [28]
45.8 µM: TGI [23]
80 µM: TGI [1]
> 100 µM: TGI [3] | TGI [4] | TGI [5] | TGI [6] | TGI [7] | TGI [11] | TGI [16] | TGI [18] | TGI [19] | TGI [21] | TGI [22] | TGI [24] | TGI [26]
57.2 µM: TGI [8]
37.7 µM: TGI [15]
32.9 µM: TGI [2]
63.4 µM: TGI [12]
66.6 µM: TGI [9]
67.8 µM: TGI [20]
59.3 µM: TGI [17]
inactive: GI50 [1] 22.9 µM | GI50 [2] 16.5 µM | GI50 [3] > 100 µM | GI50 [4] 73.6 µM | GI50 [5] 32.1 µM | GI50 [6] 23.7 µM | GI50 [7] 32 µM | GI50 [8] 21.3 µM | GI50 [9] 33 µM | GI50 [10] 22.3 µM | GI50 [11] 29.2 µM | GI50 [12] 18.9 µM | GI50 [13] 21.9 µM | GI50 [14] 15.3 µM | GI50 [15] 15.7 µM | GI50 [16] 24 µM | GI50 [17] 16.7 µM | GI50 [18] 27.3 µM | GI50 [19] 23 µM | GI50 [20] 23.9 µM | GI50 [21] 36.4 µM | GI50 [22] 32.3 µM | GI50 [23] 21.6 µM | GI50 [24] 65.7 µM | GI50 [25] 22.6 µM | GI50 [26] 42.7 µM | GI50 [27] 18 µM | GI50 [28] 27.8 µM
35.5 µM: TGI [27]
45.9 µM: TGI [13]
74.2 µM: TGI [25]
44.3 µM: TGI [14]
